# pIC50: −log10 of the molar value.
# Columns and labels:
# [1] = test system: SGC-7901; experiment: Antiproliferative activity against androgen-positive human SGC-7901 cells assessed as cell growth inhibition measured after 72 hrs by SRB assay; type: functional, cell-based; details: SGC-7901, 72 h
# [2] = molecular target: T1, Androgen receptor (Homo sapiens) (UniProt P10275); experiment: Binding affinity to androgen receptor LBD (unknown origin) at 10 uM incubated for 4 hrs under dark by fluorescence polarization based binding assay relative to R1881
# T1 sequence (whole entry): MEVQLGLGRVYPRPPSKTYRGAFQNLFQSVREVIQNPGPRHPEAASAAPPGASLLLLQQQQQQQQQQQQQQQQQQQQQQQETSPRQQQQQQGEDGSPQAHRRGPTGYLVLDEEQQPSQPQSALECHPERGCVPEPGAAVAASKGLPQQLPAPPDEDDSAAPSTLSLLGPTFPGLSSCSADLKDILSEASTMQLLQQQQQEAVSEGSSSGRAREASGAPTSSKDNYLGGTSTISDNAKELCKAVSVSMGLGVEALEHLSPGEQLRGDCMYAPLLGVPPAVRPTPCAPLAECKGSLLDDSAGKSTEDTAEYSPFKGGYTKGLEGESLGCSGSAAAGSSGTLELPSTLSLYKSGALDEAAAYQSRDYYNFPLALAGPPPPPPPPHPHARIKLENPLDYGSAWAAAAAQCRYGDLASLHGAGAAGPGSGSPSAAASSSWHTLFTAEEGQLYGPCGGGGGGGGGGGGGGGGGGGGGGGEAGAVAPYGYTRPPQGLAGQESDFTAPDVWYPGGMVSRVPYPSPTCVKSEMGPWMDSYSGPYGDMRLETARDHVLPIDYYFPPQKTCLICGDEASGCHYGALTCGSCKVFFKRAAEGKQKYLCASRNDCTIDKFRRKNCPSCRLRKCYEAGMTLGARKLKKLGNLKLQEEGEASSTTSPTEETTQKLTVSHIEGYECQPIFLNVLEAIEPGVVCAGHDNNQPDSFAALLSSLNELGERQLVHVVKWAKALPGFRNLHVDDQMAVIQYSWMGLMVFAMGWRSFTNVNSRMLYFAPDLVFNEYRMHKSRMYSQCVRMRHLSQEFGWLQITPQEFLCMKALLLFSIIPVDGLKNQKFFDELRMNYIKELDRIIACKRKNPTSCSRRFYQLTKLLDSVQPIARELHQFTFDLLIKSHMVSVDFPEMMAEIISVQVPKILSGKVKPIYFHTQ
# [3] = test system: LNCaP; experiment: Antiproliferative activity against androgen-positive human LNCaP cells assessed as cell growth inhibition measured after 72 hrs by SRB assay; type: functional, cell-based
# [4] = test system: GES1; experiment: Cytotoxicity against androgen-negative human GES1 cells assessed as cell growth inhibition measured after 72 hrs by SRB assay; type: cell-based; details: GES1, 72 h
# [5] = Cytotoxicity against androgen-negative human WPMY-1 cells assessed as cell growth inhibition measured after 72 hrs by SRB assay; type: cell-based; details: WPMY-1, 72 h
# [6] = test system: MCF7; experiment: Antiproliferative activity against androgen-positive human MCF7 cells assessed as cell growth inhibition measured after 72 hrs by SRB assay; type: functional, cell-based; details: MCF7, 72 h
# [7] = test system: LNCaP C4-2B; experiment: Antiproliferative activity against androgen-sensitive positive human LNCaP C4-2B cells assessed as cell growth inhibition measured after 72 hrs by SRB assay; type: functional, cell-based
# [8] = test system: PC-3; experiment: Antiproliferative activity against androgen-negative human PC-3 cells assessed as cell growth inhibition measured after 72 hrs by SRB assay; type: functional, cell-based; details: PC-3, 72 h
smiles,measurement,setting,value
CC1(C)C(=O)N(c2ccc(C#N)c(C(F)(F)F)c2)C(=S)N1CCCCn1cc(COCCOCCOC(=O)CC23CC4CC(CC(C4)C2)C3)nn1,pIC50,[1],5.11
same,Activity,[2],87.8%
same,pIC50,[3],5.73
same,pIC50,[4],< 4.10
same,pIC50,[5],< 4.10
same,pIC50,[6],4.88
same,pIC50,[7],4.91
same,pIC50,[8],< 4.10
CC1(C)C(=O)N(c2ccc(C#N)c(C(F)(F)F)c2)C(=S)N1CCCn1cc(COCCOCCOC(=O)CC23CC4CC(CC(C4)C2)C3)nn1,pIC50,[1],5.39
same,Activity,[2],74.6%
same,pIC50,[3],5.39
same,pIC50,[4],< 4.10
same,pIC50,[5],< 4.10
same,pIC50,[6],5.04
same,pIC50,[7],5.22
same,pIC50,[8],< 4.10
CC1(C)C(=O)N(c2ccc(C#N)c(C(F)(F)F)c2)C(=S)N1CCCn1cc(COCCOCCOCCOC(=O)CC23CC4CC(CC(C4)C2)C3)nn1,pIC50,[1],5.30
same,Activity,[2],79.5%
same,pIC50,[3],5.40
same,pIC50,[4],< 4.10
same,pIC50,[5],< 4.10
same,pIC50,[6],5.11
same,pIC50,[7],5.24
same,pIC50,[8],< 4.10
